According to paper PMC8222254, “Self-assembly of an anion receptor with metal-dependent kinase inhibition and potent in vitro anti-cancer properties” (Nature Communications, 2021):
Where “and” joins values, the source holds several entries; their conditions need not be identical. Equal entries are not always repeated. Where two headings read alike, the source gives them in different places.

Assays:
Assay in all cases: Chemosensitivity, 96 h continuous exposure, MTT assay
Assay type in all cases: cell-based, human
PSN1 = test system: PSN1
Outline: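 H460 lung and PSN1 pancreatic carcinoma lines, grown in RPMI-1640 with 10% FBS, were plated at 2 × 10^3 cells/well, dosed across a concentration range for 96 h, then given MTT for 4 h. Formazan absorbance at 540 nm gave IC50 values.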

DLD-1 = test system: DLD-1
Outline: (§1)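 Cells seeded at 2 × 10^3/well (GBM1 3 × 10^3/well) and left overnight at 37 °C, then exposed continuously for 96 h to a range of compound concentrations (final DMSO 0.2%). Viability read by MTT, absorbance at 540 nm; IC50 taken from dose-response curves as concentration reducing cell growth by 50%.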

MiaPaCa2 = test system: MiaPaCa2
Outline: as §1

BxPC3 = test system: BxPC3
Outline: as §1

A549 = test system: A549
Outline: as §1

ARPE-19 non-cancer cells = test system: ARPE-19 non-cancer cells
Outline: as §1

HCT116 p53+/+ = test system: HCT116 p53+/+
Outline: as §1

## CC(=O)[O-].CC(=O)[O-].CC(=O)[O-].O=P([O-])([O-])[O-].[Zn+2].[Zn+2].[Zn+2].c1ccc(-c2csc(NCCN(CCNc3nc(-c4ccccn4)cs3)CCNc3nc(-c4ccccn4)cs3)n2)nc1.c1ccc(-c2csc(NCCN(CCNc3nc(-c4ccccn4)cs3)CCNc3nc(-c4ccccn4)cs3)n2)nc1 [[L2Zn3(PO4)]3+]
PSN1; IC50 ARPE-19 / IC50 PSN1
  Selectivity index (ARPE19): 19.60
PSN1; IC50 MCF10A / IC50 PSN1
  Selectivity index (MCF10A): 2.16
PSN1; PSN1, mean of replicates, read-out: Mean IC50
  IC50: 6.68 µM
PSN1; PSN1, read-out: Mean IC50 values
  IC50: 6.68 µM
PSN1; PSN1, single replicate, read-out: IC50 values for each replicate
  IC50: 6.73 µM and 6.48 µM and 6.84 µM
PSN1; ratio of IC50, PSN1
  Relative potency (+ anion to no anion), Ratio + anion:no anion: 1.50
PSN1; ratio of SI (ARPE-19), PSN1
  Selectivity indices relative to ARPE-19, Ratio + anion:no anion: 0.554
PSN1; ratio of SI (MCF 10A), PSN1
  Selectivity indices relative to MCF10A, Ratio + anion:no anion: 0.059
DLD-1; DLD-1, mean of replicates, read-out: Mean IC50
  IC50: 0.19 µM
DLD-1; DLD-1, read-out: Mean IC50 values
  IC50: 0.19 µM
DLD-1; DLD-1, single replicate, read-out: IC50 values for each replicate
  IC50: 0.203 µM and 0.09 µM and 0.18 µM and 0.219 µM and 0.259 µM
DLD-1; IC50 ARPE-19 / IC50 DLD-1
  Selectivity index (ARPE19): 689.32
DLD-1; IC50 MCF10A / IC50 DLD-1
  Selectivity index (MCF10A): 75.91
DLD-1; ratio of IC50, DLD-1
  Relative potency (+ anion to no anion), Ratio + anion:no anion: 1.12
DLD-1; ratio of SI (ARPE-19), DLD-1
  Selectivity indices relative to ARPE-19, Ratio + anion:no anion: 0.745
DLD-1; ratio of SI (MCF 10A), DLD-1
  Selectivity indices relative to MCF10A, Ratio + anion:no anion: 0.080
MiaPaCa2; IC50 ARPE-19 / IC50 MiaPaCa2
  Selectivity index (ARPE19): 2.94
MiaPaCa2; IC50 MCF10A / IC50 MiaPaCa2
  Selectivity index (MCF10A): 0.32
MiaPaCa2; MiaPaCa2, mean of replicates, read-out: Mean IC50
  IC50: 44.5 µM
MiaPaCa2; MiaPaCa2, read-out: Mean IC50 values
  IC50: 44.5 µM
MiaPaCa2; MiaPaCa2, single replicate, read-out: IC50 values for each replicate
  IC50: 52.4 µM and 49.8 µM and 47.6 µM and 22 µM and 50.8 µM
MiaPaCa2; ratio of IC50, MiaPaCa2
  Relative potency (+ anion to no anion), Ratio + anion:no anion: 0.75
MiaPaCa2; ratio of SI (ARPE-19), MiaPaCa2
  Selectivity indices relative to ARPE-19, Ratio + anion:no anion: 1.106
MiaPaCa2; ratio of SI (MCF 10A), MiaPaCa2
  Selectivity indices relative to MCF10A, Ratio + anion:no anion: 0.118
BxPC3; BXPC3, mean of replicates, read-out: Mean IC50
  IC50: 0.728 µM
BxPC3; BXPC3, read-out: Mean IC50 values
  IC50: 0.728 µM
BxPC3; BXPC3, single replicate, read-out: IC50 values for each replicate
  IC50: 0.812 µM and 0.698 µM and 0.618 µM and 0.766 µM
BxPC3; IC50 ARPE-19 / IC50 BXPC3
  Selectivity index (ARPE19): 179.90
BxPC3; IC50 MCF10A / IC50 BXPC3
  Selectivity index (MCF10A): 19.81
BxPC3; ratio of IC50, BXPC3
  Relative potency (+ anion to no anion), Ratio + anion:no anion: 2.28
BxPC3; ratio of SI (ARPE-19), BXPC3
  Selectivity indices relative to ARPE-19, Ratio + anion:no anion: 0.366
BxPC3; ratio of SI (MCF 10A), BXPC3
  Selectivity indices relative to MCF10A, Ratio + anion:no anion: 0.039
A549; A549, mean of replicates, read-out: Mean IC50
  IC50: 0.501 µM
A549; A549, read-out: Mean IC50 values
  IC50: 0.501 µM
A549; A549, single replicate, read-out: IC50 values for each replicate
  IC50: 0.234 µM and 0.734 µM and 0.617 µM and 0.417 µM
A549; IC50 ARPE-19 / IC50 A549
  Selectivity index (ARPE19): 261.42
A549; IC50 MCF10A / IC50 A549
  Selectivity index (MCF10A): 28.79
A549; ratio of IC50, A549
  Relative potency (+ anion to no anion), Ratio + anion:no anion: 1.24
A549; ratio of SI (ARPE-19), A549
  Selectivity indices relative to ARPE-19, Ratio + anion:no anion: 0.670
A549; ratio of SI (MCF 10A), A549
  Selectivity indices relative to MCF10A, Ratio + anion:no anion: 0.072
ARPE-19 non-cancer cells; ARPE-19, mean of replicates, read-out: Mean IC50
  IC50: 131 µM
ARPE-19 non-cancer cells; ARPE-19, single replicate, read-out: IC50 values for each replicate
  IC50: 121 µM and 118 µM and 154 µM
ARPE-19 non-cancer cells; ARPE-19 non-cancer, read-out: Mean IC50 values
  IC50: 131 µM
ARPE-19 non-cancer cells; ratio of IC50, ARPE-19
  Relative potency (+ anion to no anion), Ratio + anion:no anion: 0.83
HCT116 p53+/+; HCT116 p53+/+, mean of replicates, read-out: Mean IC50
  IC50: 0.218 µM
HCT116 p53+/+; HCT116 p53+/+, read-out: Mean IC50 values
  IC50: 0.218 µM
HCT116 p53+/+; HCT116 p53+/+, single replicate, read-out: IC50 values for each replicate
  IC50: 0.218 µM and 0.227 µM and 0.209 µM
HCT116 p53+/+; IC50 ARPE-19 / IC50 HCT116 p53+/+
  Selectivity index (ARPE19): 600.78
HCT116 p53+/+; IC50 MCF10A / IC50 HCT116 p53+/+
  Selectivity index (MCF10A): 66.16
HCT116 p53+/+; ratio of IC50, HCT116 p53+/+
  Relative potency (+ anion to no anion), Ratio + anion:no anion: 0.47
HCT116 p53+/+; ratio of SI (ARPE-19), HCT116 p53+/+
  Selectivity indices relative to ARPE-19, Ratio + anion:no anion: 1.780
HCT116 p53+/+; ratio of SI (MCF 10A), HCT116 p53+/+
  Selectivity indices relative to MCF10A, Ratio + anion:no anion: 0.191
